Some test systems named below: BT-549 breast; HCT-116 colon; HOP-62 NSCLC; NCI-H460 lung; NCI/ADR-RES ovarian; OVCAR-5 ovarian; SF-539 CNS; SK-MEL-2 melanoma; U251 CNS; SNB-75 CNS.
Holding throughout (test): growth of human tumour cells (NCI), 48 h

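The compound was tested at five concentrations on cells cultured in 96-well plates, with a 48-hour exposure period. GI50 marks 50% less growth. TGI is the concentration that stops growth completely.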

`CCN1C(NN)=NS(=O)(=O)c2ccccc21`: the TGI with BT-549 breast, with HCT-116 colon, in the experiment on HOP-62 NSCLC, in the experiment on NCI-H460 lung, in the experiment on NCI/ADR-RES ovarian and in the experiment with OVCAR-5 ovarian was above 100 µM each time. Moreover, the TGI in the experiment on SF-539 CNS, with SK-MEL-2 melanoma and in the experiment with U251 CNS was above 100 µM each time.
For `Cc1c(C(=O)C/C(=N/NC(=O)C[n+]2ccccc2)C(=O)Nc2ccccc2)[n+](=O)c2ccccc2n1O`, the TGI with HCT-116 colon, with HOP-62 NSCLC, in the experiment with NCI-H460 lung, with OVCAR-5 ovarian, in the experiment on SF-539 CNS and in the experiment on SK-MEL-2 melanoma was above 100 µM each time. The TGI with SNB-75 CNS and with U251 CNS was above 100 µM throughout.
With `O=C(CSC(c1ccccc1)c1ccccc1)N/N=C/c1cccc(Cl)c1`, the GI50 with BT-549 breast was 17.9 µM; in the experiment with HCT-116 colon, 15700 nM; with HOP-62 NSCLC it was 17.3 µM; with NCI-H460 lung, 17.6 µM; in the experiment on NCI/ADR-RES ovarian it was 14.3 µM; with OVCAR-5 ovarian, 17.5 µM. Also, the GI50 with SF-539 CNS was 18.8 µM; with SK-MEL-2 melanoma, 15.7 µM; in the experiment with U251 CNS, 17.7 µM. In addition, the TGI with BT-549 breast was found to be 32.2 µM; in the experiment on HCT-116 colon it was 29.1 µM; with HOP-62 NSCLC, 31.6 µM; with NCI-H460 lung, 34.8 µM; with NCI/ADR-RES ovarian, 31.8 µM; with OVCAR-5 ovarian, 33.8 µM. For the same compound, the TGI was 33.3 µM in the experiment on SF-539 CNS, 30.1 µM in the experiment on SK-MEL-2 melanoma and 31.5 µM with U251 CNS.
On to `COc1ccc(N=Nc2c(-c3ccccc3)nn(C(=O)CC(=O)Nc3cccc(Cl)c3)c2-c2ccccc2)cc1`, for which the TGI with HCT-116 colon, in the experiment with HOP-62 NSCLC, with NCI-H460 lung, in the experiment with OVCAR-5 ovarian, with SF-539 CNS and in the experiment on SK-MEL-2 melanoma was above 100 µM throughout. Moreover, the TGI in the experiment with SNB-75 CNS and in the experiment with U251 CNS was above 100 µM each time.
Regarding `CC(C)(C)CC(C)(C)c1cc2c(O)c(c1)Cc1cc(C(C)(C)CC(C)(C)C)cc(c1O)Cc1cc(C(C)(C)CC(C)(C)C)cc(c1O)Cc1cc(C(C)(C)CC(C)(C)C)cc(c1O)Cc1cc(C(C)(C)CC(C)(C)C)cc(c1O)Cc1cc(C(C)(C)CC(C)(C)C)cc(c1O)C2`, the TGI with HCT-116 colon, in the experiment on HOP-62 NSCLC, in the experiment on NCI-H460 lung, with OVCAR-5 ovarian, in the experiment on SF-539 CNS and in the experiment with SK-MEL-2 melanoma was above 100 µM throughout. In addition, the TGI with SNB-75 CNS and with U251 CNS was above 100 µM throughout.
On to `CN=C(NC#N)NCCSCc1nc[nH]c1C`, for which the TGI in the experiment on HCT-116 colon, in the experiment on HOP-62 NSCLC, in the experiment with NCI-H460 lung, in the experiment with NCI/ADR-RES ovarian, in the experiment with OVCAR-5 ovarian and with SF-539 CNS was above 100 µM throughout. Also, the TGI is above 100 µM with SK-MEL-2 melanoma, 79.3 µM with SNB-75 CNS and above 100 µM in the experiment with U251 CNS.
On to `CCOC(=O)/C=C/c1cc2cc(-c3csc4ccccc34)ccc2[nH]1`, for which the GI50 in the experiment with HCT-116 colon was 2960 nM; with HOP-62 NSCLC, 5.71 µM; in the experiment with NCI-H460 lung, 15.5 µM; in the experiment on NCI/ADR-RES ovarian, 10 µM; in the experiment with OVCAR-5 ovarian, 21.6 µM; in the experiment with SF-539 CNS, 14 µM. The GI50 with SK-MEL-2 melanoma was 4.92 µM; with SNB-75 CNS it was 6.14 µM; in the experiment on U251 CNS, 5.49 µM. Besides, the TGI worked out at 31.4 µM with HCT-116 colon; 24.4 µM in the experiment with HOP-62 NSCLC; 31.3 µM with NCI-H460 lung; 55.3 µM with NCI/ADR-RES ovarian; 42.6 µM in the experiment with OVCAR-5 ovarian; 27.1 µM in the experiment with SF-539 CNS. The results for the TGI in the experiment on SK-MEL-2 melanoma, with SNB-75 CNS and in the experiment on U251 CNS were 17.3 µM, 20.8 µM and 18.8 µM, respectively.
As for `CC(=O)c1cc2c(cc1Nc1c3ccccc3nc3occ(Cl)c13)OCO2`, the GI50 with BT-549 breast is 0.157 µM; in the experiment on HCT-116 colon, 246 nM; in the experiment with HOP-62 NSCLC, 0.291 µM; in the experiment with NCI-H460 lung, 0.27 µM; in the experiment on NCI/ADR-RES ovarian, 0.236 µM; in the experiment on OVCAR-5 ovarian it was 0.616 µM. The GI50 is 0.0302 µM with SF-539 CNS and 0.35 µM in the experiment with U251 CNS. The TGI in the experiment with BT-549 breast was above 100 µM; with HCT-116 colon, 1.07 µM; in the experiment on HOP-62 NSCLC, above 65.1 µM; in the experiment with NCI-H460 lung, above 40.1 µM; in the experiment with NCI/ADR-RES ovarian it was 1.47 µM; in the experiment on OVCAR-5 ovarian, above 100 µM. Further, the TGI with SF-539 CNS was 0.0998 µM; in the experiment with SK-MEL-2 melanoma, above 100 µM; in the experiment on U251 CNS, above 100 µM.
Consider `C[C@]12CCc3nonc3C1CC[C@@H]1C2CC[C@]2(C)NC(=O)CCC12` (stereo partly specified), for which the TGI with HCT-116 colon, in the experiment on HOP-62 NSCLC, in the experiment with NCI-H460 lung, with OVCAR-5 ovarian, in the experiment with SF-539 CNS and in the experiment on SK-MEL-2 melanoma was above 100 µM in each case. The TGI with SNB-75 CNS and in the experiment with U251 CNS was above 100 µM throughout.
On to `O=C1N(c2ccccc2)C(=O)C2(SC=NN2Cc2ccccc2)N1c1ccccc1` (stereo unspecified), for which the TGI in the experiment with HCT-116 colon, in the experiment with HOP-62 NSCLC, with NCI-H460 lung, with SF-539 CNS, in the experiment on SNB-75 CNS and in the experiment on U251 CNS was above 100 µM throughout.
`O=C(c1cc2ccccc2o1)N(Cc1ccccc1)c1ccccc1`: the TGI is 31.9 µM in the experiment on HCT-116 colon; 71.4 µM in the experiment on HOP-62 NSCLC; 78.6 µM with NCI-H460 lung; above 100 µM in the experiment with OVCAR-5 ovarian; above 100 µM with SK-MEL-2 melanoma; above 100 µM with SNB-75 CNS.
With `CC(=O)c1c(C)n(C)c2c1nnc1ccccc12`, the TGI in the experiment on BT-549 breast, in the experiment on HCT-116 colon, in the experiment with HOP-62 NSCLC, in the experiment on NCI-H460 lung, in the experiment on NCI/ADR-RES ovarian and in the experiment on SF-539 CNS was above 100 µM throughout. The TGI in the experiment with SK-MEL-2 melanoma and in the experiment with U251 CNS was above 100 µM each time.
As for `CC(=O)c1cccc(NC(=O)C(=O)C(C2OC(=O)c3ccccc32)[N+](=O)[O-])c1` (stereo unspecified), the TGI with HCT-116 colon, with HOP-62 NSCLC, with NCI-H460 lung, in the experiment with OVCAR-5 ovarian, with SF-539 CNS and in the experiment with SK-MEL-2 melanoma was above 100 µM in each case. In addition, the TGI in the experiment on SNB-75 CNS and in the experiment on U251 CNS was above 100 µM throughout.

Values taken from PubChem BioAssay (NCI).
